For assay [1], the system named is GluR2o / GluR3o expressed in insect cells. The settings on record: cited from earlier work; for Affinity for GluR2o higher than for GluR3o: receptors expressed in insect cells.
In a further assay the target is GluR2o S1S2 domain (Rattus norvegicus, UniProt P19491, DEL528-650/S652T/V651G). In words: Inhibition of [3H]AMPA binding to GluR2o S1S2. Conditions: GluR2 S1S2 vs GluR3 S1S2, inhibition of [3H]AMPA binding.

Each structure is given as a SMILES string.

As for `NC(Cc1onc(O)c1Cl)C(=O)O` (stereo not shown) [Cl-HIBO, 4-chlorohomoibotenic acid], the “Affinity of homomeric GluR2 greater than GluR3” value in assay [1] (homomeric receptors, same expression system (insect cells)) was “approximately 100 fold”. At GluR2o S1S2 domain, the “Difference in affinity (IC50) between GluR2 S1S2 and GluR3 S1S2” value is reported as “ten-fold”.

Consider `N[C@@H](Cn1cc(F)c(=O)[nH]c1=O)C(=O)O` [fluorowillardiine], for which, in assay [1], the “Affinity for GluR2o higher than for GluR3o” value was 10 fold.

On to `N[C@@H](Cn1ccc(=O)[nH]c1=O)C(=O)O` [willardiine], for which the “Affinity for GluR2o higher than for GluR3o” value in assay [1] is listed as 10 fold.

The values are drawn from PMC2732992 (Proteins, 2009).
